Experimental findings from article PMC4856313 (PLoS Pathogens, 2016) are described below.

≈ marks a conversion by molar mass, not a printed value. Like-named read-outs stand apart in the source and are kept apart here.

One data set deals with T1, MnaA (Staphylococcus aureus, UniProt Q9REV4).
T1 construct: MnaA-His6 in the activity assays; purification in supplement (S1 Text); dimer in crystal; residues from 376 to the C-terminus not modelled
The data set can be described thus: X-ray crystal structure, […] Å. Format: binding. The conditions noted are these: 4 mM Na2UDP added; one UDP per chain; also co-purified with the protein.

Data set [1] relates to T2, Staphylococcus aureus MRSA COL.
T2 construct: COL (MRSA), parental wild type
The experiment in a line: microbe, parasite or virus in culture. Set-up: minimum inhibitory concentration of antibiotics against staphylococcal strains. The source says:
(§1) Minimum inhibitory concentrations (MIC; μg ml^-1) of β-lactams imipenem (IPM), nafcillin (Naf), and dicloxacillin (Dic) are provided. […] To directly evaluate the consequence of these mnaA mutations, WTA of the corresponding mutants was extracted and polymer levels visualized on an alcian blue-silver stained SDS PAGE gel (Fig 3A and S1 Fig).

In data set [2] the test system is T3, Staphylococcus epidermidis MRSE CLB26329.
T3 construct: CLB26329 (MRSE), parental wild type
The experiment in a line: microbe, parasite or virus in culture. More on the design: minimum inhibitory concentration of antibiotics against staphylococcal strains.
From the text: as §1

Data set [3] deals with CC(=O)N[C@H]1[C@@H](OP(=O)(O)OP(=O)(O)OC[C@H]2O[C@@H](n3ccc(=O)[nH]c3=O)[C@H](O)[C@@H]2O)O[C@H](CO)[C@@H](O)[C@@H]1O. The experiment in a line: purified protein. Particulars: forward reaction, 10 mM NaPi, 50 mM NaCl, pH 8.0, 30°C, MnaA-His6.
Data set [4] has as its system CC(=O)N[C@@H]1[C@@H](OP(=O)(O)OP(=O)(O)OC[C@H]2O[C@@H](n3ccc(=O)[nH]c3=O)[C@H](O)[C@@H]2O)O[C@H](CO)[C@@H](O)[C@@H]1O. The data set can be described thus: purified protein. Particulars: reverse reaction, 10 mM NaPi, 50 mM NaCl, pH 8.0, 30°C, MnaA-His6.
Setting [5] is: read-out: MIC (µg ml-1) / Vanco.

T1 sequence (Q9REV4 entry or part of it): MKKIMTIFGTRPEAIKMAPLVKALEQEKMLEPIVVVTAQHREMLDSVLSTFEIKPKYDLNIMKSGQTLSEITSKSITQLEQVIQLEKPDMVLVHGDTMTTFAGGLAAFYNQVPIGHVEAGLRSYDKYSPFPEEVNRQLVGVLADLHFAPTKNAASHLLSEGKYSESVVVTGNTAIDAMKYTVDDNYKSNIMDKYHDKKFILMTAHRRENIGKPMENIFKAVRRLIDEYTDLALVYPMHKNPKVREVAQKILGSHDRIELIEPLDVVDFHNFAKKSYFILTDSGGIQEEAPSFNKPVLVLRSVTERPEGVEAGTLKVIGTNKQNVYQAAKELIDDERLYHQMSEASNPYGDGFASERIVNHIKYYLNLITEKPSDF

Regarding `O=c1ccn([C@@H]2O[C@H](COP(=O)(O)OP(=O)(O)O)[C@@H](O)[C@H]2O)c(=O)[nH]1` [UDP], the “X-ray crystal structure, 1.9 Å” value on MnaA is “The model also contains one molecule of UDP per chain”.

In the case of `Cc1onc(-c2c(Cl)cccc2Cl)c1C(=O)N[C@@H]1C(=O)N2[C@@H]1SC(C)(C)[C@@H]2C(=O)O` [dicloxacillin], the MIC in data set [1] (read-out: MIC (µg ml-1) / Dic) and in data set [2] (read-out: MIC (µg ml-1) / Dic) was more than 64 µg/mL in each case.

Regarding `C[C@@H](O)[C@H]1C(=O)N2C(C(=O)O)=C(SCCNC=N)C[C@H]12` [imipenem], the MIC amounted to 32 µg/mL (≈ 107 µM) in data set [1] (read-out: MIC (µg ml-1) / IPM) and 64 µg/mL (≈ 214 µM) in data set [2] (read-out: MIC (µg ml-1) / IPM).

On to `CCOc1ccc2ccccc2c1C(=O)N[C@@H]1C(=O)N2[C@@H]1SC(C)(C)[C@@H]2C(=O)O` [nafcillin], for which the MIC in data set [1] (read-out: MIC (µg ml-1) / Naf) and in data set [2] (read-out: MIC (µg ml-1) / Naf) was more than 64 µg/mL in each case.

As to `CN[C@H](CC(C)C)C(=O)N[C@H]1C(=O)N[C@@H](CC(N)=O)C(=O)N[C@H]2C(=O)N[C@H]3C(=O)N[C@H](C(=O)N[C@H](C(=O)O)c4cc(O)cc(O)c4-c4cc3ccc4O)[C@H](O)c3ccc(c(Cl)c3)Oc3cc2cc(c3O[C@@H]2O[C@H](CO)[C@@H](O)[C@H](O)[C@H]2O[C@H]2C[C@](C)(N)[C@H](O)[C@H](C)O2)Oc2ccc(cc2Cl)[C@H]1O` [vancomycin], the MIC was found to be 2 µg/mL (≈ 1.38 µM) in data set [1] (setting [5]) and 4 µg/mL (≈ 2.76 µM) in data set [2] (setting [5]).

As to MnaA (Staphylococcus aureus), the Km in data set [3] turned out to be 411 ± 57 µM; in data set [4], 131 ± 21 µM.

What is called Km is the concentration of substrate that gives half-maximal velocity.
